How the values were obtained:
Assay in all cases: KinomeScan profiling
Type in all cases: binding
SGK3 = target: T1, SGK3 (Homo sapiens, UniProt Q96BR1); details: SGK3, 1 μM; read-out: % control
T1 construct: purchased KinomeScan® (panel service)
T1 sequence (Q96BR1 1-496): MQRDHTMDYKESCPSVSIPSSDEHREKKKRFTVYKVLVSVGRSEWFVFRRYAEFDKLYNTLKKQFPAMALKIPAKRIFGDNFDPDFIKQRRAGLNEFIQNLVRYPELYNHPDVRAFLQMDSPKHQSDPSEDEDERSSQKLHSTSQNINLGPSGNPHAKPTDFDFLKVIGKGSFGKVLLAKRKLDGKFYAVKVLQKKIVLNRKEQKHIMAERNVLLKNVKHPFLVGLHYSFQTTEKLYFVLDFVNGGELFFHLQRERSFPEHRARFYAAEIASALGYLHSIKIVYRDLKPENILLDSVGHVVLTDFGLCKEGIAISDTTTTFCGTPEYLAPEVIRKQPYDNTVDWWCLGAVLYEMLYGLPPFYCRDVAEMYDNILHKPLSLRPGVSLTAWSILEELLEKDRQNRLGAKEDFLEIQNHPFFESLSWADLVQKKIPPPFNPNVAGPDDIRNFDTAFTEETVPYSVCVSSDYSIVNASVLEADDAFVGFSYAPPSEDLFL
Method in brief: (§1)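 Single-point competition binding screen: 1 μM, DMSO, 468 kinases. Results reported as % control from RLU, normalised to DMSO and positive-control wells. Activity threshold: <35% control.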

ADCK4 = target: T2, ADCK4 (Homo sapiens, UniProt Q96D53); details: ADCK4, 1 μM; read-out: % control
T2 construct: purchased KinomeScan®
T2 sequence (Q96D53 1-544): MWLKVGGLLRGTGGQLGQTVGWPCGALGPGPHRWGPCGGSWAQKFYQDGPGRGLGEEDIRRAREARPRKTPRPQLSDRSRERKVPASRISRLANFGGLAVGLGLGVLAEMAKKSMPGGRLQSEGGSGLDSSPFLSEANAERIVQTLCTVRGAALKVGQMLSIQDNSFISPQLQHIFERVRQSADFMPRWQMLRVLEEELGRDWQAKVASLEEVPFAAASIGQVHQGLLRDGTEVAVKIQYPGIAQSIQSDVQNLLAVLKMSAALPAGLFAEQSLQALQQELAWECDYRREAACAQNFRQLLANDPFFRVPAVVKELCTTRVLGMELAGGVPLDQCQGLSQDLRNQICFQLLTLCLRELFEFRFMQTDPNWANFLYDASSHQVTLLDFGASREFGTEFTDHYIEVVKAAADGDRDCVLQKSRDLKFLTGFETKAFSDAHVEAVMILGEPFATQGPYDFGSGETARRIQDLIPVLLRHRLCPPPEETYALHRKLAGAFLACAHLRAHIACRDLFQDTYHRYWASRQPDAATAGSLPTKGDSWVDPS
Method in brief: as §1

[1] = target: T3, RPS6KA4(Kin.Dom.1-N-terminal) (Homo sapiens, UniProt O75676); details: read-out: % control
T3 construct: RPS6KA4(Kin.Dom.1-N-terminal)
T3 sequence (O75676 33-301 limits assumed): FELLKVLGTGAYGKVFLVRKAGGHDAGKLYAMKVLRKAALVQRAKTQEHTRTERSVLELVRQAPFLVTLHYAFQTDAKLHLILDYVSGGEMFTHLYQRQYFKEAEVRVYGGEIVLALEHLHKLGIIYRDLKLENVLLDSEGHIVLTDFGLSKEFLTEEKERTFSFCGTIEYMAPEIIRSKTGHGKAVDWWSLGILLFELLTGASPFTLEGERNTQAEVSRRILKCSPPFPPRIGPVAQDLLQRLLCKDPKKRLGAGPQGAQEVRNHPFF
Method in brief: as §1

ERK4 = ERK4 (Homo sapiens, UniProt P31152); details: ERK4, 1 μM; read-out: % control
Chain of ERK4 (P31152 whole entry): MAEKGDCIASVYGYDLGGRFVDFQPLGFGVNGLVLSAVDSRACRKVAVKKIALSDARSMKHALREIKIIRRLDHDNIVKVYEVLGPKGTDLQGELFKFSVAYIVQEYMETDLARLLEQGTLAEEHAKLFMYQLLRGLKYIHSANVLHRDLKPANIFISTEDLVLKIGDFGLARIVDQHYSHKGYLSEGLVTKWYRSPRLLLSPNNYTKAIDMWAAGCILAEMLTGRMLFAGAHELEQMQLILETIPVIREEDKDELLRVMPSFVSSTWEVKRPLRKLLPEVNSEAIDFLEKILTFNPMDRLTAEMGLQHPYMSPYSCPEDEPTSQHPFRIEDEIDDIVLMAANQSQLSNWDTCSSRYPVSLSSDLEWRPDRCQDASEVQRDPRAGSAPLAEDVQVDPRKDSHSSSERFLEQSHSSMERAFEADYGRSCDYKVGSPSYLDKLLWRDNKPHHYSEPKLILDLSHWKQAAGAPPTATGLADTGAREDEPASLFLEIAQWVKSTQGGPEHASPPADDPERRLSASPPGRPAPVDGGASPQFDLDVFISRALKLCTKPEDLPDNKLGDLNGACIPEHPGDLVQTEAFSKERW
Method in brief: as §1

Row | Structure (SMILES) | remaining binding at 1 µM (SGK3) [%] | remaining binding at 1 µM (ADCK4) [%] | remaining binding at 1 µM [1] [%] | remaining binding at 1 µM (ERK4) [%]
1 | CNc1c(-c2cnn([C@H]3CCN(C(C)=O)C[C@@H]3F)c2)cnc2[nH]cc(Cl)c12 [Compound 77, 1-((3S,4S)-4-(4-(3-chloro-4-(methylamino)-1H-pyrrolo[2,3-b]pyridin-5-yl)-1H-pyrazol-1-yl)-3-fluoropiperidin-1-yl)ethan-1-one] | 37 | 100 | 97 | 90
2 | CNc1c(-c2ccc(C(=O)N3CCC(N4CCOCC4)CC3)cc2)cnc2[nH]cc(Cl)c12 [Compound 96, (4-(3-chloro-4-(methylamino)-1H-pyrrolo[2,3-b]pyridin-5-yl)phenyl)(4-morpholinopiperidin-1-yl)methanone] | 48 | 100 | 100 | 94
3 | O=C(c1ccc(-c2cnc3[nH]cc(Cl)c3c2NC2CCCC2)cc1)N1CCC(N2CCOCC2)CC1 [Compound 101, (4-(3-chloro-4-(cyclopentylamino)-1H-pyrrolo[2,3-b]pyridin-5-yl)phenyl)(4-morpholinopiperidin-1-yl)methanone] | 96 | 100 | 84 | 93

Source: patent US12275731B2, “Azaindole inhibitors of wild-type and mutant forms of LRRK2” (DANA-FARBER CANCER INSTITUTE, INC., priority 2018, dated 2025)
